Data reported in ChEMBL document CHEMBL4354827, “Discovery of Novel, Potent, Brain-Permeable, and Orally Efficacious Positive Allosteric Modulator of α7 Nicotinic Acetylcholine Receptor [4-(5-(4-Chlorophenyl)-4-methyl-2-propionylthiophen-3-yl)benzenesulfonamide]: Structure-Activity Relationship and Preclinical Characterization” (J Med Chem, 2020).

Tests used:
[1] = Protein binding in human plasma at 5 uM incubated for 16 hrs under shaking condition by LC/MS/MS based rapid equilibrium dialysis method; assay type: ADME, cell-free; settings: read-out: PPB (converted)
[2] = Half life in Wistar rat at 1 mg/kg, iv after 0.083 to 144 hrs by LC-MS/MS analysis; assay type: ADME, organism-based; settings: in vivo
[3] = molecular target: Neuronal acetylcholine receptor subunit alpha-7 (Homo sapiens, UniProt P36544); assay: Positive allosteric modulatory activity against alpha7 nAChR in human IMR-32 cells assessed as potentiation of PNU-282987-induced Ca2+ […] at by FLIPR assay; assay type: cell-based
Sequence of Neuronal acetylcholine receptor subunit alpha-7 (P36544 whole entry): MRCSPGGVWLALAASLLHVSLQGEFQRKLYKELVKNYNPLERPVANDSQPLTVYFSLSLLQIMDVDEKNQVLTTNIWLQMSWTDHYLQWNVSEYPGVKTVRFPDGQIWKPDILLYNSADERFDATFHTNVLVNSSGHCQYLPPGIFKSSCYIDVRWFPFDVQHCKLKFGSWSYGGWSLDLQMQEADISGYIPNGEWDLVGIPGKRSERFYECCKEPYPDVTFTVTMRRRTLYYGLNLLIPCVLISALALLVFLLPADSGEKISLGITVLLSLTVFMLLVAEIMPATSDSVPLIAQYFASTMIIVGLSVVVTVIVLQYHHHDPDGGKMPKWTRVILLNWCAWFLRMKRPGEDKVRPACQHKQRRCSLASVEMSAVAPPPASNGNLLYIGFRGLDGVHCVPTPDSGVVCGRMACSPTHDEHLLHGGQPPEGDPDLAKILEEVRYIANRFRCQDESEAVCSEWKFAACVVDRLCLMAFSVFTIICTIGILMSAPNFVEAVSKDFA

[4] = Drug concentration in Wistar rat brain at 10 mg/kg, po after 1 hr by LC-MS/MS analysis; assay type: ADME, organism-based; settings: read-out: Drug uptake
[5] = system: Rattus norvegicus; assay: Memory enhancement effect in time-delay induced Wistar rat model of amnesia assessed as exploration time for novel object in retention trial at 0.15 mg/kg, po for 7 days and measured on day 8 by novel object recognition test (reference value: 15.37 sec); assay type: functional
[6] = Half life in Beagle dog at 1 mg/kg, iv after 0.083 to 144 hrs by LC-MS/MS analysis; assay type: ADME, organism-based, Canis lupus familiaris; settings: in vivo
[7] = Drug concentration in Wistar rat brain at 10 mg/kg, po after 24 hrs by LC-MS/MS analysis; assay type: ADME, organism-based; settings: read-out: Drug uptake
[8] = AUCt in Wistar rat brain at 10 mg/kg, po after 1 to 144 hrs by LC-MS/MS analysis; assay type: ADME, organism-based
[9] = Half life in BALB/c mouse at 1 mg/kg, iv after 0.083 to 144 hrs by LC-MS/MS analysis; assay type: ADME, organism-based; settings: in vivo
[10] = Drug metabolism in monkey liver microsomes assessed as metabolic rate at 1 uM preincubated for 5 mins followed by NADPH addition after 30 mins by LC-MS/MS analysis; assay type: ADME, Macaca mulatta, Microsome; settings: rhesus monkey, 0.5 h
[11] = system: Rattus norvegicus; assay: Memory enhancement effect in scopolamine-induced Wistar rat model of amnesia assessed as increase in discrimination index at 0.5 mg/kg, po for 7 days and measured on day 8 by novel object recognition test (reference value: 0.21); assay type: functional
[12] = Drug level in scopolamine-induced Sprague-Dawley rat plasma at 0.5 mg/kg, po for 7 days; assay type: ADME, organism-based
[13] = Drug concentration in Wistar rat plasma at 10 mg/kg, po after 48 hrs by LC-MS/MS analysis; assay type: ADME, organism-based
[14] = Drug metabolism in rat liver microsomes assessed as metabolic rate at 1 uM preincubated for 5 mins followed by NADPH addition after 30 mins by LC-MS/MS analysis; assay type: ADME, Microsome; settings: 0.5 h
[15] = Protein binding in mouse plasma at 5 uM incubated for 16 hrs under shaking condition by LC/MS/MS based rapid equilibrium dialysis method; assay type: ADME, cell-free; settings: read-out: PPB (converted)
[16] = system: Rattus norvegicus; assay: Memory enhancement effect in time-delay induced Wistar rat model of amnesia assessed as increase in exploration time for novel object in retention trial at 1 mg/kg, po administered as single dose and measured on day 9 by novel object recognition test (reference value: 12.06 sec); assay type: functional
[17] = molecular target: Cytochrome P450 2C19 (Homo sapiens, UniProt P33261); assay: Inhibition of CYP2C19 (unknown origin) up to 10 uM; assay type: ADME
Sequence of Cytochrome P450 2C19 (P33261 whole entry): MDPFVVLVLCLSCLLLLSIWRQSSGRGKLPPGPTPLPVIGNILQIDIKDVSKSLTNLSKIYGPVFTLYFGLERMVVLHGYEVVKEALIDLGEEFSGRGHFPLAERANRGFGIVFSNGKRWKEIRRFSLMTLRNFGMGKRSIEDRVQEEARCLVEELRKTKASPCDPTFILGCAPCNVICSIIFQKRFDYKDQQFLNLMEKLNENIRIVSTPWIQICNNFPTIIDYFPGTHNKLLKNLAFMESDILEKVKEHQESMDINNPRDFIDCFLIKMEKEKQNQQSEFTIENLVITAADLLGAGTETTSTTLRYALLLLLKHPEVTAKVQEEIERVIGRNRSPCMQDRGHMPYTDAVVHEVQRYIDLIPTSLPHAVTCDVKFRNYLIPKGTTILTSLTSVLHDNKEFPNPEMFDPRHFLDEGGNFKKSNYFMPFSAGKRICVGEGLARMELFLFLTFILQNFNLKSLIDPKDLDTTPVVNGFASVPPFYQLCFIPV

[18] = molecular target: Cytochrome P450 2D6 (Homo sapiens, UniProt P10635); assay: Inhibition of CYP2D6 (unknown origin) up to 10 uM; assay type: ADME
Sequence of Cytochrome P450 2D6 (P10635 whole entry): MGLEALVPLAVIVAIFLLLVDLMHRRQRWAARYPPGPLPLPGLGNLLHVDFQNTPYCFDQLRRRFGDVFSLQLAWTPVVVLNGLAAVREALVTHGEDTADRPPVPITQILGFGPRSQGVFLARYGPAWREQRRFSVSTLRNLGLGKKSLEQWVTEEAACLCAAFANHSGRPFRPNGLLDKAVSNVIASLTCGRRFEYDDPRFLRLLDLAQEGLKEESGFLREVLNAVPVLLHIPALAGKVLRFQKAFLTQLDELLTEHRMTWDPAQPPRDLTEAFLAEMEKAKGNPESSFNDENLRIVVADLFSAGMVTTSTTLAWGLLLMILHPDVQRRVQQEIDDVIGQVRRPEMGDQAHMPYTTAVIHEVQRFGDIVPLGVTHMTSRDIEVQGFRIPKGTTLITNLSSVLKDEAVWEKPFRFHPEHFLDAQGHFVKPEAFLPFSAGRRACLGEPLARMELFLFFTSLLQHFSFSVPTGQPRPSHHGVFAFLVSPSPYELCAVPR

[19] = system: Rattus norvegicus; assay: Improvement in social recognition time delay-induced Sprague-Dawley rat model of amnesia assessed as increase in reduction in social investigation time at 0.50 mg/kg, po for 7 days and measured on day 9 (reference value: -0.5%); assay type: functional; set-up: scale not given: the % may be the effect or the level left
[20] = Half life in BALB/c mouse at 10 mg/kg, po after 0.25 to 144 hrs by LC-MS/MS analysis; assay type: ADME, organism-based; settings: in vivo
[21] = system: Rattus norvegicus; assay: Memory enhancement effect in time-delay induced Wistar rat model of amnesia assessed as exploration time for familiar object at 1 mg/kg, po administered as single dose after acquisition trial by novel object recognition test (reference value: 10.6 sec); assay type: functional
[22] = system: Rattus norvegicus; assay: Memory enhancement effect in time-delay induced Wistar rat model of amnesia assessed as exploration time for object2 in acquisition trial at 1 mg/kg, po administered as single dose and measured on day 8 by novel object recognition test (reference value: 16.33 sec); assay type: functional
[23] = system: Rattus norvegicus; assay: Improvement in social recognition scopolamine-induced Sprague-Dawley rat model of amnesia assessed as increase in reduction in social investigation time at 3 mg/kg, po administered as single dose prior to 1 hr training and measured after 30 mins (reference value: 9.81%); assay type: functional; set-up: scale not given: the % may be the effect or the level left
[24] = Half life in human at 7.5 to 50 mg administered for 14 days; assay type: ADME; settings: in vivo
[25] = system: Rattus norvegicus; assay: Memory enhancement effect in time-delay induced Wistar rat model of amnesia assessed as exploration time for familiar object in retention trial at 0.5 mg/kg, po for 7 days and measured on day 8 by novel object recognition test (reference value: 10.20 sec); assay type: functional
[26] = system: Rattus norvegicus; assay: Memory enhancement effect in scopolamine-induced Wistar rat model of amnesia assessed as exploration time for object1 in acquisition trial at 0.05 mg/kg, po administered as single dose and measured on day 8 by novel object recognition test (reference value: 16.11 sec); assay type: functional
[27] = Metabolic stability in rat liver microsomes assessed as compound remaining at 1 uM preincubated for 5 mins followed by NADPH addition and measured after 30 mins by LC-MS/MS analysis; assay type: ADME, Microsome; settings: read-out: Stability
[28] = Unbound brain-to-plasma concentration ratio in Wistar rat at 10 mg/kg, po after 48 hrs by LC-MS/MS analysis; assay type: ADME, organism-based; settings: read-out: K(p,uu,brain)
[29] = Drug metabolism in dog liver microsomes assessed as metabolic rate at 1 uM preincubated for 5 mins followed by NADPH addition after 30 mins by LC-MS/MS analysis; assay type: ADME, Canis lupus familiaris, Microsome; settings: 0.5 h
[30] = system: Rattus norvegicus; assay: Memory enhancement effect in time-delay induced Wistar rat model of amnesia assessed as increase in novel object discrimination index at 3 mg/kg, po administered as single dose and measured on day 9 by novel object recognition test (reference value: 0.03); assay type: functional
[31] = system: Rattus norvegicus; assay: Memory enhancement effect in scopolamine-induced Wistar rat model of amnesia assessed as exploration time for novel object in retention trial at 0.05 mg/kg, po for 7 days and measured on day 8 by novel object recognition test (reference value: 12.09 sec); assay type: functional
[32] = system: Rattus norvegicus; assay: Improvement in social recognition time delay-induced Sprague-Dawley rat model of amnesia assessed as reduction in recognition index at 0.05 mg/kg, po for 7 days and measured on day 9 (reference value: 1.05); assay type: functional
[33] = Drug level in Wistar rat plasma at 0.15 mg/kg, po; assay type: ADME, organism-based; settings: in vivo
[34] = Cmax in Wistar rat at 10 mg/kg, po after 0.25 to 144 hrs by LC-MS/MS analysis; assay type: ADME, organism-based; set-up: dose 10 mg/kg, route oral; settings: in vivo
[35] = AUC (0 to 144 hrs) in Wistar rat at 10 mg/kg, po after 0.25 to 144 hrs by LC-MS/MS analysis; assay type: ADME, organism-based; set-up: dose 10 mg/kg, time < 144 hr, route oral; settings: in vivo
[36] = system: Rattus norvegicus; assay: Memory enhancement effect in scopolamine-induced Wistar rat model of amnesia assessed as exploration time for object2 in acquisition trial at 0.50 mg/kg, po for 7 days and measured on day 8 by novel object recognition test (reference value: 15.63 sec); assay type: functional

Q: Which results are given for CCC(=O)c1sc(-c2ccc(Cl)cc2)c(C)c1-c1ccc(S(N)(=O)=O)cc1?
A: fraction unbound at 16 h, 5 µM [1]: 0.0015; half-life [2]: 45 h; EC50 [3]: 0.324 µM; concentration at 1 h [4]: 4030 nM; Time [5]: 7.15 s; half-life [6]: 88 h; concentration at 24 h [7]: 6520 nM; AUC(0-t) [8]: 301 µM·h; half-life [9]: 14 h; Drug metabolism [10]: 0.03 nmol/min/mg; Activity_index [11]: 0.45; concentration at 168 h [12]: 580 nM; concentration at 48 h [13]: 620 nM; Drug metabolism [14]: 0.01 nmol/min/mg; fraction unbound at 16 h, 5 µM [15]: 0.0116; Time [16]: 25.93 s; inhibition (INH) [17]: Not Active; inhibition (INH) [18]: Not Active; Activity [19]: 46.16%; half-life [20]: 22 h; Time [21]: 11.94 s; Time [22]: 23.96 s; Activity [23]: 55.09%; half-life [24]: 48 to 80.9 h; Time [25]: 4.9 s; Time [26]: 16.07 s; remaining at 0.5 h, 1 µM [27]: 94%; Kp uu at 48 h [28]: 1.15; Drug metabolism [29]: 0.01 nmol/min/mg; Activity_index [30]: 0.48; Time [31]: 14.65 s; Activity_index [32]: 0.81; concentration [33]: 70 nM; Cmax [34]: 4100 nM; AUC(0-t) at 144 h [35]: 201 µM·h; Time [36]: 16.55 s
